Source: ChEMBL document CHEMBL1149460, “Pharmacokinetics and metabolism studies on (3-tert-butyl-7-(5-methylisoxazol-3-yl)-2-(1-methyl-1H-1,2,4-triazol-5-ylmethoxy) pyrazolo[1,5-d][1,2,4]triazine, a functionally selective GABA(A) alpha5 inverse agonist for cognitive dysfunction” (Bioorg Med Chem Lett, 2006)

Legend:
[1] = Efficacy against human GABA alpha-5 receptor expressed in mouse fibroblast L(tk-) cells by whole cell patch clamp method; type: functional
[2] = target: GABA-A receptor; anion channel (Rattus norvegicus) (UniProt O09028+P15431+P18506+P18508+P19969+P20236+P23574+P23576+P28471+P28473+P30191+P62813+P63079+P63138+Q91ZM7+Q9ES14); assay: Receptor occupancy in vivo by displacement of [3H]Ro 15-1788 binding from rat brain GABAA receptor at 3 mg/kg, ip; type: functional, organism-based; set-up: dose 3 mg/kg
[3] = Efficacy against human GABA alpha-3 receptor expressed in mouse fibroblast L(tk-) cells by whole cell patch clamp method; type: functional
[4] = Efficacy against human GABA alpha-2 receptor expressed in mouse fibroblast L(tk-) cells by whole cell patch clamp method; type: functional
[5] = Binding affinity to GABA alpha5 receptor; set-up: species or system Homo sapiens
[6] = target: GABA A receptor alpha-1/beta-1/gamma-2 (Homo sapiens) (UniProt P14867+P18507+P18505); assay: Efficacy against human GABA alpha-1 receptor expressed in mouse fibroblast L(tk-) cells by whole cell patch clamp method; type: functional, cell-based
[7] = Half life in dog; type: ADME, organism-based, Canis lupus familiaris; conditions: in vivo
[8] = Clearance in dog; type: ADME, organism-based, Canis lupus familiaris; conditions: in vivo
[9] = Clearance in rhesus; type: ADME, organism-based, Macaca mulatta; conditions: rhesus monkey, in vivo
[10] = Oral bioavailability in rhesus; type: ADME, organism-based, Macaca mulatta; conditions: rhesus monkey, in vivo
[11] = Clearance in rat; type: ADME, organism-based; conditions: in vivo
[12] = Half life in rhesus; type: ADME, organism-based, Macaca mulatta; conditions: rhesus monkey, in vivo
[13] = Half life in rat; type: ADME, organism-based; conditions: in vivo

Activity [2] [%] | Ki [5] [nM] | Efficacy [6] [%] | half-life [7] [min] | clearance [8] [mL/min/kg] | clearance [9] [mL/min/kg] | bioavailability [10] [%] | clearance [11] [mL/min/kg] | half-life [12] [min] | half-life [13] [min] | Structure (SMILES) | Efficacy [1] [%] | Efficacy [3] [%] | Efficacy [4] [%]
12 | 1.1 | -11 | – | – | – | – | – | – | – | Cn1ncnc1COc1nn2c(-c3cc(CO)on3)nncc2c1C(C)(C)C | -52 | -15 | -1
– | > 666 | – | – | – | – | – | – | – | – | Cc1cc(-c2nnc(O)c3c(C(C)(C)CO)c(OCc4ncnn4C)nn23)no1 | – | – | –
21 | 9.4 | -41 | – | – | – | – | – | – | – | Cc1cc(-c2nncc3c(C(C)(C)CO)c(OCc4ncnn4C)nn23)no1 | -40 | -32 | -23
– | 700 | 1 | – | – | – | – | – | – | – | Cc1cc(-c2nnc(O)c3c(C(C)(C)C)c(OCc4ncnn4C)nn23)no1 | -47 | -8 | 0
– | 370 | – | – | – | – | – | – | – | – | Cn1ncnc1COc1nn2c(-c3cc(CO)on3)nnc(O)c2c1C(C)(C)C | – | – | –
8 | 21 | -45 | – | – | – | – | – | – | – | Cn1ncnc1COc1nn2c(-c3cc(CO)on3)nncc2c1C(C)(C)CO | -44 | -39 | -31
> 95 | 1.4 | -16 | 30 | 39 | 33 | < 2 | 27 | 18 | 30 | Cc1cc(-c2nncc3c(C(C)(C)C)c(OCc4ncnn4C)nn23)no1 | -55 | -9 | 6
